# Test results as given in patent publication EP4722262A1, “PHOTOCURABLE COMPOSITION, THREE-DIMENSIONAL SHAPED OBJECT, CASTING MOLD, METHOD FOR PRODUCING CURED OBJECT, AND METHOD FOR PRODUCING DENTAL PROSTHESIS” (Mitsui Chemicals, Inc., priority 2023, dated 2025).
# Assay: Viscosity at 25°C of manufactured monomers
# Type: physicochemical
smiles,measurement,value
C=CC(=O)OCCOC(=O)NCCC(C)CC(C)(C)CNC(=O)OCCOC(=O)C=C (stereo not shown) [SUA-001],viscosity at 25°C,"7,100 mPa·s"
